{"source": "patent US8795679B2", "about": "“Pharmaceutical and cosmetic use of extracts from algae obtainable from saline hot water sources” (Blaa Lonid Hf, priority 2006, dated 2014)", "tested_on": "differentiation markers involucrin, transglutaminase-1, filaggrin, and loricrin in human epidermal keratinocytes", "test": "Induction of differentiation markers in human epidermal keratinocytes (real time RT-PCR)", "assay_type": "cell-based", "conditions": "especially at the early time point, 24 h post addition of the tested substance", "method": "The effect of the extracts obtained in Examples 1 and 2 on the differentiation markers involucrin, transglutaminase-1, filaggrin, and loricrin in human epidermal keratinocytes has been assessed. As control a ceramide mix (10 μM) was used to induce the differentiation markers.\nLong term cultured normal human epidermal keratinocytes, NHEK, prepared from neonatal foreskin are cultured in Keratinocyte SFM (Invitrogen, Heidelberg, Germany) supplemented with bovine pituitary extract (Invitrogen, Heidelberg, Germany) and recombinant epidermal growth factor (Invitrogen, Heidelberg, Germany). Cells are propagated up to passage 2 or 3 at 37° C. and 5% CO2. For induction of differentiation NHEKs are seeded in 6-well plates and grown up to confluence and treated with several concentrations of the algae extracts.\nTotal RNA was isolated using RNeasy Total RNA Kits (Qiagen, Hilden, Germany). The RNA concentration was determined via photometric measurement at 260/280 (Biophotometer, Eppendorf A G, Hamburg, Germany). An aliquot of 100 ng RNA was used for cDNA synthesis. […]\nPCR reactions were carried out on an Opticon 1 (MJ Research, Waltham, Mass., USA) using SYBR Green® PCR Master Mix (Applied Biosystems, Darmstadt, Germany). Each sample was analyzed in double employing the universal protocol over 36 cycles. […]"}
{"smiles": "O=[Si]([O-])[O-].[Na+].[Na+]", "note": "[sodium metasilicate]", "values": [{"measurement": "expression of the differentiation markers involucrin, filaggrin and transglutaminase-1 (silica samples)", "result": "substantial up-regulation"}]}
